Results published in patent US5364944A, “Substituted benzoylbenzene-, biphenyl- and 2-oxazole- alkanoic acid compounds” (American Home Products Corporation, priority 1993, dated 1994).

What was measured:
[1] = system: LTB4; experiment: Reverse passive Arthus pleurisy assay, inflammatory mediator release: LTB4; format: in vivo, rat (male Lewis); details: 25 mg/kg p.o., 3 hours before challenge
[2] = target: T1, LTD4-induced contractions of isolated guinea pig trachea (Cavia porcellus, UniProt Q2NNR5); experiment: In vitro isolated guinea pig trachea assay, LTD4 antagonist activity; design: species or system guinea pig (male Hartley); details: 1 × 10^-5 M
T1 construct: isolated guinea pig trachea; from tissue; host or cells: tracheal rings of male Hartley guinea pigs
T1 sequence (Q2NNR5 1-340): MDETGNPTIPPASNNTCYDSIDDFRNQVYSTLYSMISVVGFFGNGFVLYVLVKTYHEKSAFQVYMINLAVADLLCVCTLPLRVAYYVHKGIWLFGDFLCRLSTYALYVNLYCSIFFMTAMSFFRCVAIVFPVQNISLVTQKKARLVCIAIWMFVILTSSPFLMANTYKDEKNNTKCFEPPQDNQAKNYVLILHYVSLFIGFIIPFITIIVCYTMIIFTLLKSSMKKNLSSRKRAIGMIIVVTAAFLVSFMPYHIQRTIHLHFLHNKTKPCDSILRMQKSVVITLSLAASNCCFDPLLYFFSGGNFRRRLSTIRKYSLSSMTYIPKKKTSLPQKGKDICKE
Protocol: The LTD4 antagonist activity of the compounds of the invention is assessed in the in vitro isolated guinea pig trachea assay. This assay is carried out as follows: Male Hartley guinea pigs (350-400 g) are euthanized by a blow to the head, the neck is opened and the trachea removed. The trachea is maintained in aerated physiological salt solution, cleared of connective tissue and fat and cut into rings approximately 2 mm in width (usually containing two cartilaginous segments per ring). Two pieces of silk suture are then passed through the lumen of the tracheal ting and are tied around the cartilage, one on each side of the trachealis muscle. The tracheal ring is suspended between a glass hook and a force displacement transducer in a 10 ml organ bath for measurement of isometric tension. […] The tracheal rings are maintained at 2 g resting tension and equilibrated for 45 minutes (with frequent washing and readjustment of resting tension). The tracheal […] contracted by the addition of carbachol (3×10^-6 M), to determine tissue responsiveness and establish a reference contraction. On attainment of a stable level of contraction (approximately 30 minutes), the tissues are washed several times until baseline tension has been restored and the re-equilibrated for 30 minutes. The tissues are then incubated for 45 minutes with a test antiagonist (either 1×10^-6 M or 1×10^-5 M) or 10 μl of an appropriate solvent control (control, nontreated). One tissue in each group serves as the control. Twenty minutes prior to the construction of the LTD4 cumulative concentration-response curve, L-[…]×10^-2 M final bath concentration) is added to inhibit bioconversion of LTD4 to LTE4. Only one LTD4 concentration-response curve is constructed in each tissue. All responses to LTD4 in an individual tissue are measured as a percentage of the reference contraction of that tissue to carbachol. LTD4 antagonist activity is determined by comparison of the concentration response curves of LTD4 in the presence and absence of antagonist. Assessment of the relative rightward shift of the antagonist treated curve relative to the solvent (control) treated tissue is calculated as a concentration ratio (Eq. A) and used in subsequent calculations to derive an antagonist pKB value (Eqs. B and C). […] If a compound is found to be active and/or depress the maximal response to LTD4, then a range of concentrations of the test compound should be used generating multiple concentration ratios which would then be used to perform a Schild analysis, and determination of a pA2 value where appropriate.

SMILES: CC(C(=O)N(C)O)c1ccc(-c2ccc(OCc3csc(-c4ccccc4)n3)cc2)cc1 (stereo not drawn) [Example 21, N-Hydroxy-N,α-dimethyl-4'-[(2-phenylthiazol-4-yl)methoxy][1,1'-biphenyl]-4-acetamide]
- % Inhibition of LTB4 Synthesis [1]: 8%
- Kb [2]: > 10 µM
